# US9688624B2, “DP2 antagonist and uses thereof” (Brickell Biotech, Inc., priority 2010, dated 2017)
# Structures can show the parent of a compound that is named as a salt. Where two headings read alike, the source gives them in different places.
# How the values were obtained:
# [1] = Phase I single ascending dose study in humans, pharmacokinetics; assay type: in vivo, human; settings: for half-life / AUC(0-inf) / AUC(0-t) / Cmax / Tmax / Vd/F: human, plasma; for Vd/F: read-out: Vz/F
# Description: Example 22: Phase I Study in Humans
# This is a phase 1, Single-Center, Double-Blind Study of Compound 2 in healthy volunteers.
# To assess: (1) the safety and tolerability of single and multiple doses of Compound 2 following oral administration; and (2) the pharmacokinetics (PK) of Compound 2 after single and multiple doses; and (3) the effects of the pharmacodynamic (PD) responses in healthy subjects to Compound 2 as measured by a PGD2-induced eosinophil shape change assay (ESC).
# The Single Ascending Dose (SAD) study will include 6 cohorts with 8 subjects each, 6 receiving the active treatment and 2 receiving the placebo. The SAD study will explore doses of 5, 15, 50, 150, 300 and 500 mg/day. Compound 2 (Pattern 1) is administered as API in a Capsule, prepared on site at the clinical pharmacy (see Example 10). Safety monitoring will include: a “how do you feel” (HDYF) question, adverse events reporting, physical examinations, vital signs, ECG's, and a biological assessment (clinical chemistry, hematology and urinalysis). The decision to escalate to the next dose level will be based on the results of medical monitoring, and a blinded interim analysis of pharmacokinetic parameters (AUC, Cmax) and pharmacodynamic responses. Doses may be adjusted based on the occurrence of adverse events. Subjects will be followed on site for 72 hours after dose administration.
# The plasma concentrations of Compound 1 are determined by LC-MS/MS, giving a detection limit of 0.25 ng*mL^−1.
# Pharmacokinetic measurements of Compound 2 includes measurement of the protonated form (Compound 1).
# CYP3A4 = CYP3A4 (Homo sapiens (Human), UniProt P08684); test: Extracellular cytochrome P450 inhibition (microsomes); assay type: in vitro ADME
# CYP2D6 = CYP2D6 (Homo sapiens (Human), UniProt P10635); test: as above; assay type: in vitro ADME; settings: 2D6, dextromethorphan O-demethylation
# CYP1A2 = CYP1A2 (Homo sapiens (Human), UniProt P05177); test: as above
# guinea pig DP2 receptor = guinea pig DP2 receptor (Cavia porcellus, UniProt H0W1T0); test: In vitro DP2/CRTH2 radioligand ([3H]PGD2) membrane binding assay
# Method: Example 15: In Vitro DP2/CRTH2 Binding Assay
# The ability of Compound 1 to bind to the human DP2 receptor was assessed via a radioligand binding assay using [^3H]PGD2. HEK293 cells stably expressing recombinant human DP2 are resuspended in 10 mM Hepes, 7.4 containing 1 mM DTT, lysed and centrifuged at 75,000×g to pellet the membranes. The membranes are resuspended in 10 mM Hepes, 7.4 containing 1 mM DTT and 10% glycerol to approximately 5 mg protein/ml. Membranes (2-10 μg protein/well) are incubated in 96-well plates with 1 nM [^3H]PGD2 and Compound 1 in Assay Buffer (50 mM Hepes, 10 mM MnCl2, 1 mM EDTA, plus or minus 0.2% human serum albumin, pH 7.4) for 60 minutes at room temperature. The reactions are terminated by rapid filtration through Whatman GF/C glass fibre filter plates. The filter plates were pre-soaked in 0.33% polythylenimine for 30 minutes at room temperature then washed in Wash Buffer (50 mM Hepes, 0.5 M NaCl pH 7.4) prior to harvesting. After harvesting, the filter plates are washed 3 times with 1 ml cold Wash Buffer then dried. Scintillant is then added to the plates and the radioactivity retained on the filters is determined on a Packard TopCount (Perkin Elmer). Specific binding is determined as total radioactive binding minus non-specific binding in the presence of 10 μM PGD2. IC50s were determined using GraphPad prism analysis of drug titration curves. […]
# [2] = Plasma concentrations in guinea pig allergic asthma model; assay type: in vivo; settings: for concentration at 3 h: oral, 3 hours post dose, read-out: mean plasma Compound 1 concentration
# Method: Plasma Compound 1 concentrations were determined 3 hours and 24 hours post dose. […] At 60 mg/kg, a mean plasma concentration of 371.7±303.8 was observed 3 hours post dose. At 100 mg/kg, a mean plasma concentration of 360.8±131.3 was observed 3 hours post dose.
# [3] = single oral 5 mg capsule, healthy humans, mean
# [4] = single oral 15 mg capsule, healthy humans, mean
# [5] = single oral 50 mg capsule, healthy humans, mean
# [6] = single oral 150 mg capsule, healthy humans, mean
# [7] = single oral 300 mg capsule, healthy humans, mean
# [8] = single oral 500 mg capsule, healthy humans, mean
# Sequence of CYP3A4 (P08684 whole entry): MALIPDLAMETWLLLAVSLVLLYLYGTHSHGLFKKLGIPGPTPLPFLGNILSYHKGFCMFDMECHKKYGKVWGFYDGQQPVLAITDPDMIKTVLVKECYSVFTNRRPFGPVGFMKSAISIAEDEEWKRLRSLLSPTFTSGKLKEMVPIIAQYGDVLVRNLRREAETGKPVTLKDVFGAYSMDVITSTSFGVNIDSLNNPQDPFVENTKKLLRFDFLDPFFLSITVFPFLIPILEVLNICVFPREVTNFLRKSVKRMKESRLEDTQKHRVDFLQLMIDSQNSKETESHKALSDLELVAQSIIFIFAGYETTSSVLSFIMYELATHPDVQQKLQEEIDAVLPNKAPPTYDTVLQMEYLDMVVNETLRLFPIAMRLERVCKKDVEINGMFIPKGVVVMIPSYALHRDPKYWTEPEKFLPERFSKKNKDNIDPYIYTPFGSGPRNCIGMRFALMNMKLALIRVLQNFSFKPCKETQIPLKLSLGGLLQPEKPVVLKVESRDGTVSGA
# Sequence of CYP2D6 (P10635 whole entry): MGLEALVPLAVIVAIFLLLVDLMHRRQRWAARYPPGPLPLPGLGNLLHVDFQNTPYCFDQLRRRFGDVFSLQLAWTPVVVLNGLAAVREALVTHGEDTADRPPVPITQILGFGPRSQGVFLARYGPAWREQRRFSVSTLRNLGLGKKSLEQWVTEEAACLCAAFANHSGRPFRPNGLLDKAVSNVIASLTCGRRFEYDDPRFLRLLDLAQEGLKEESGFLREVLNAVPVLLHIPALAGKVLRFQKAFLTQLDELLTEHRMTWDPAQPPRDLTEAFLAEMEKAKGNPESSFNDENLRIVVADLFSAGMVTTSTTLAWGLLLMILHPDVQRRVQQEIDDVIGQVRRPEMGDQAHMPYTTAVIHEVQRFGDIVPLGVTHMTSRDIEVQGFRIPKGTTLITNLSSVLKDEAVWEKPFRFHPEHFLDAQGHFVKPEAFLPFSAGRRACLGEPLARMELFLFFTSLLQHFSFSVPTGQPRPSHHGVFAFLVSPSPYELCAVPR
# Sequence of guinea pig DP2 receptor (H0W1T0 1-391): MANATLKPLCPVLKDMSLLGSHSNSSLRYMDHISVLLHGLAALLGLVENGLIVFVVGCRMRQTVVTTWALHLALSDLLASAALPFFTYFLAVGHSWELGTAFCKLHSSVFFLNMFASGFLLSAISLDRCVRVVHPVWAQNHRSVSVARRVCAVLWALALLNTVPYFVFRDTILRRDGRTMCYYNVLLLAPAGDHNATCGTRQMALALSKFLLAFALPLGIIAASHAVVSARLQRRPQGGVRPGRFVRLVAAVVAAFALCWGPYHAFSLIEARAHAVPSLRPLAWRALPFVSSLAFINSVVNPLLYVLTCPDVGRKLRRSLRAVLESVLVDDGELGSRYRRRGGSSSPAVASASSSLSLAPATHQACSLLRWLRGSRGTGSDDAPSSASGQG
# Sequence of CYP1A2 (P05177 whole entry): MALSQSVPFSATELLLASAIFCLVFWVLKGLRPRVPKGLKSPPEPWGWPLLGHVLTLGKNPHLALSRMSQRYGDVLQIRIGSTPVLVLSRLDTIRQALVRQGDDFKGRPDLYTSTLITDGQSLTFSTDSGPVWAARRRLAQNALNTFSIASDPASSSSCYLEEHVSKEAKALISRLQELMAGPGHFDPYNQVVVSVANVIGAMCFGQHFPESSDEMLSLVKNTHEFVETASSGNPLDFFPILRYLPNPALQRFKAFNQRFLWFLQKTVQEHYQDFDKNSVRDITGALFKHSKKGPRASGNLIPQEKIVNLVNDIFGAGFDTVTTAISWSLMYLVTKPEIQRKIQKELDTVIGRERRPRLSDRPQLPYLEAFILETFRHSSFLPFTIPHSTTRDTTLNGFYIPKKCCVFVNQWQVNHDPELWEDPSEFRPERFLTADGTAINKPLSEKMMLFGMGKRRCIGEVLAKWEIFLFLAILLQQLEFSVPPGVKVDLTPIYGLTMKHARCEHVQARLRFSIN
compound,measurement,setting,value
"COc1ccc(CC(=O)O)cc1Oc1ccc(NC(=O)C(C)(C)C)cc1CSC(C)(C)C [Compound 2, 2-(3-(2-((tert-butylthio)methyl)-4-(2,2-dimethyl-propionylamino)phenoxy)-4-methoxyphenyl)acetic acid, sodium salt]",half-life,"[1]; oral, humans, 150 and 500 mg dose, read-out: long elim. t1/2",≤ 18 h
same,half-life,"[1]; oral, humans, SAD study, read-out: half life, increases with dose",1.2 to 7 h
same,AUC(0-inf),[1]; [3],6.2 ng·h/mL
same,AUC(0-t),[1]; [3],4.85 ng·h/mL
same,Cmax,[1]; [3],2.69 ng/mL
same,Tmax,[1]; [3],0.542 h
same,Vd/F,[1]; [3],1470 L
same,half-life,"[1]; single oral 5 mg capsule, healthy humans, mean, read-out: t1/2 (converted)",1.22 h
same,AUC(0-inf),[1]; [4],17.5 ng·h/mL
same,AUC(0-t),[1]; [4],17 ng·h/mL
same,Cmax,[1]; [4],8.31 ng/mL
same,Tmax,[1]; [4],0.625 h
same,Vd/F,[1]; [4],1760 L
same,half-life,"[1]; single oral 15 mg capsule, healthy humans, mean, read-out: t1/2 (converted)",1.23 h
same,Cmax,[1]; [5],93.4 ng/mL
same,Tmax,[1]; [5],1.2 h
same,Vd/F,[1]; [5],1500 L
same,half-life,"[1]; single oral 50 mg capsule, healthy humans, mean, read-out: t1/2 (converted)",1.49 h
same,AUC(0-inf),[1]; [6],3460 ng·h/mL
same,AUC(0-t),[1]; [6],3450 ng·h/mL
same,Cmax,[1]; [6],4630 ng/mL
same,Tmax,[1]; [6],0.542 h
same,Vd/F,[1]; [6],1410 L
same,half-life,"[1]; single oral 150 mg capsule, healthy humans, mean, read-out: t1/2 (converted)",7.86 h
same,AUC(0-inf),[1]; [7],6980 ng·h/mL
same,AUC(0-t),[1]; [7],6970 ng·h/mL
same,Cmax,[1]; [7],6690 ng/mL
same,Tmax,[1]; [7],0.92 h
same,Vd/F,[1]; [7],351 L
same,half-life,"[1]; single oral 300 mg capsule, healthy humans, mean, read-out: t1/2 (converted)",6.32 h
same,AUC(0-inf),[1]; [8],26000 ng·h/mL
same,AUC(0-t),[1]; [8],26000 ng·h/mL
same,Cmax,[1]; [8],25700 ng/mL
same,Tmax,[1]; [8],0.583 h
same,Vd/F,[1]; [8],501 L
same,half-life,"[1]; single oral 500 mg capsule, healthy humans, mean, read-out: t1/2 (converted)",14.1 h
same,CL/F,[1]; [3],886 L/h
same,λz,[1]; [3],0.598 h⁻¹
same,CL/F,[1]; [4],982 L/h
same,λz,[1]; [4],0.574 h⁻¹
same,CL/F,[1]; [5],643 L/h
same,λz,[1]; [5],0.485 h⁻¹
same,CL/F,[1]; [6],161 L/h
same,λz,[1]; [6],0.130 h⁻¹
same,CL/F,[1]; [7],53.4 L/h
same,λz,[1]; [7],0.19 h⁻¹
same,CL/F,[1]; [8],21.8 L/h
same,λz,[1]; [8],0.0904 h⁻¹
same,IC50,"CYP3A4; 3A4, midazolam 1-hydroxylation, read-out: IC50",> 50 µM
same,IC50,"CYP3A4; 3A4, testosterone 6β-hydroxylation, read-out: IC50",26 µM
same,IC50,"CYP3A4; not a potent inhibitor, read-out: IC50, CYP3A4 (summary statement)",> 25 µM
same,IC50,CYP2D6,> 50 µM
same,IC50,CYP1A2,> 25 µM
"COc1ccc(CC(=O)O)cc1Oc1ccc(NC(=O)C(C)(C)C)cc1CSC(C)(C)C [Compound 1, 2-(3-(2-((tert-butylthio)methyl)-4-(2,2-dimethyl-propionylamino)phenoxy)-4-methoxyphenyl)acetic acid]",IC50,"guinea pig DP2 receptor; 0.2% guinea pig serum albumin, read-out: IC50, radioligand membrane binding on guinea pig DP2",0.0203 µM
same,IC50,"guinea pig DP2 receptor; average, without serum albumin, read-out: IC50, inhibition of radiolabeled PGD2 binding to guinea pig DP2",0.0106 µM
same,concentration at 24 h,"[2]; 24 hours after oral dose, each dose amount, below lower limit of quantitation, read-out: plasma Compound 1 concentration",< 40 nM
same,concentration at 3 h,[2]; 30 mg/kg,107 ± 31.7 nM
same,concentration at 3 h,[2]; 60 mg/kg,372 ± 304 nM
same,concentration at 3 h,[2]; 100 mg/kg,361 ± 131 nM
